According to PubChem BioAssay AID256 (DTP/NCI, 2004):
Where “and” joins values, the source holds several entries; their conditions need not be identical. Equal values may be shown once. Toxic doses and inconclusive results are not listed.

Tested on: CD2F1 mice, L1210 leukemia ip, survival T/C
Experiment: NCI In Vivo Anticancer Drug Screen. Data for tumor model L1210 Leukemia (intraperitoneal) in CD2F1 (CDF1) mice
Conditions: higher = longer survival
Method in brief: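 Implant tumor; dose compound or vehicle; measure endpoint in both groups; report treated divided by control.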

[1] = endpoint: mean survival time, dose: 100.0 mg/kg/injection, schedule: Q04DX003 (ip), vehicle: saline with Tween-80
[2] = endpoint: mean survival time, dose: 200.0 mg/kg/injection, schedule: Q04DX003 (ip), vehicle: saline with Tween-80
[3] = endpoint: mean survival time, dose: 100.0 mg/kg/injection, schedule: Q01DX001 (ip), vehicle: saline
[4] = endpoint: mean survival time, dose: 200.0 mg/kg/injection, schedule: Q01DX001 (ip), vehicle: saline
[5] = endpoint: mean survival time, dose: 400.0 mg/kg/injection, schedule: Q01DX001 (ip), vehicle: saline
[6] = endpoint: mean survival time, dose: 50.0 mg/kg/injection, schedule: Q01DX009 (ip), vehicle: saline with Tween-80
[7] = endpoint: mean survival time, dose: 100.0 mg/kg/injection, schedule: Q01DX009 (ip), vehicle: saline with Tween-80
[8] = endpoint: mean survival time, dose: 200.0 mg/kg/injection, schedule: Q01DX009 (ip), vehicle: saline with Tween-80
[9] = endpoint: mean survival time, dose: 400.0 mg/kg/injection, schedule: Q01DX009 (ip), vehicle: saline with Tween-80
[10] = endpoint: mean survival time, dose: 25.0 mg/kg/injection, schedule: Q01DX009 (ip), vehicle: saline with Tween-80
[11] = endpoint: mean survival time, dose: 100.0 mg/kg/injection, schedule: Q01DX001 (ip), vehicle: saline with Tween-80
[12] = endpoint: mean survival time, dose: 400.0 mg/kg/injection, schedule: Q01DX001 (ip), vehicle: saline with Tween-80
[13] = endpoint: mean survival time, dose: 200.0 mg/kg/injection, schedule: Q01DX001 (ip), vehicle: Klucel (hydroxypropylcellulose) (HPC)
[14] = endpoint: mean survival time, dose: 400.0 mg/kg/injection, schedule: Q01DX001 (ip), vehicle: Klucel (hydroxypropylcellulose) (HPC)

For `COC(=O)CC1CCS(=O)(=O)C1` (stereo not given), the T/C [1] was 98 % of control, the T/C [2] was 93 % of control and the T/C (endpoint: mean survival time, dose: 400.0 mg/kg/injection, schedule: Q04DX003 (ip), vehicle: saline with Tween-80) was 92 % of control.

`CCCCCCCCN(C)S(=O)(=O)CCCC` was tested, and the T/C (endpoint: mean survival time, dose: 6.25 mg/kg/injection, schedule: Q01DX009 (ip), vehicle: water) was 103 % of control, the T/C (endpoint: mean survival time, dose: 12.5 mg/kg/injection, schedule: Q01DX009 (ip), vehicle: water) was 95 % of control and the T/C (endpoint: mean survival time, dose: 25.0 mg/kg/injection, schedule: Q01DX009 (ip), vehicle: water) was 106 % of control. The T/C (endpoint: mean survival time, dose: 50.0 mg/kg/injection, schedule: Q01DX009 (ip), vehicle: water) was 111 % of control and the T/C (endpoint: mean survival time, dose: 100.0 mg/kg/injection, schedule: Q01DX009 (ip), vehicle: water) was 103 % of control.

For `COc1cccc(CCNc2ccncc2N)c1`, the T/C (endpoint: mean survival time, dose: 75.0 mg/kg/injection, schedule: Q01DX001 (ip), vehicle: saline) was 96 % of control.

With `O=C1N(c2ccccc2)CCS1(=O)=O` the T/C (endpoint: mean survival time, dose: 9.5 mg/kg/injection, schedule: Q01DX001 (ip), vehicle: other) was 101 % of control, the T/C (endpoint: mean survival time, dose: 19.0 mg/kg/injection, schedule: Q01DX001 (ip), vehicle: other) was 100 % of control and the T/C (endpoint: mean survival time, dose: 38.0 mg/kg/injection, schedule: Q01DX001 (ip), vehicle: other) was 106 % of control.

For `CC(C)OP(=O)(OCCCO)C(Cl)Cl` (stereo not given), the T/C [3] was 100 % of control, the T/C [4] was 102 % of control and the T/C [5] was 102 % of control.

For `N/C(=N\O)c1ccccc1`, the T/C [6] was 103 % of control, the T/C [7] was 98 % of control and the T/C [8] was 90 % of control.

For `CCCCOCC(C)O` (stereo not given), the T/C (endpoint: mean survival time, dose: 100.0 mg/kg/injection, schedule: Q01DX009 (ip), vehicle: saline) was 97 % of control, the T/C (endpoint: mean survival time, dose: 200.0 mg/kg/injection, schedule: Q01DX009 (ip), vehicle: saline) was 101 % of control and the T/C (endpoint: mean survival time, dose: 400.0 mg/kg/injection, schedule: Q01DX009 (ip), vehicle: saline) was 100 % of control.

In the case of `O=C1OC(c2ccccc2)c2ccccc21` (stereo not given), the T/C [7] is reported as 95 % of control, the T/C [8] is reported as 100 % of control and the T/C [9] is reported as 92 % of control.

With `COc1ccc(C(=C(CC(=O)O)C(=O)O)c2ccc(OC)cc2)cc1` the T/C [3] was 98 % of control, the T/C [4] was 98 % of control and the T/C [5] was 101 % of control.

With `CC1(C)C(=O)OC(n2ccc(=O)[nH]c2=O)C1=O` (stereo not given) the T/C (endpoint: median survival time, dose: 12.5 mg/kg/injection, schedule: Q01DX005 (ip), vehicle: saline) was 103 % of control, the T/C (endpoint: median survival time, dose: 25.0 mg/kg/injection, schedule: Q01DX005 (ip), vehicle: saline) was 103 % of control and the T/C (endpoint: median survival time, dose: 50.0 mg/kg/injection, schedule: Q01DX005 (ip), vehicle: saline) was 101 % of control. The T/C (endpoint: median survival time, dose: 100.0 mg/kg/injection, schedule: Q01DX005 (ip), vehicle: saline) was 103 % of control and the T/C (endpoint: median survival time, dose: 200.0 mg/kg/injection, schedule: Q01DX005 (ip), vehicle: saline) was 103 % of control.

In the case of `O=C=Nc1ccc(N=Nc2ccccc2)cc1`, the T/C [10] is reported as 89 % of control, the T/C [6] is reported as 88 % of control and the T/C [11] is reported as 95 % of control. For the same compound, the T/C [7] was 98 % of control and the T/C [12] was 90 % of control.

For `CCN(C(=O)Nc1ccc(Cl)cc1)c1ccccc1C`, the T/C [7] was 97 % of control, the T/C [8] was 94 % of control and the T/C [9] was 90 % of control.

In the case of `CC(=O)/C(=C\c1ccc(/C=C(\C(C)=O)C(=O)CCN(C)C)cc1)C(=O)CCN(C)C`, the T/C (endpoint: median survival time, dose: 25.0 mg/kg/injection, schedule: Q01DX005 (ip), vehicle: saline with Tween-80) is reported as 102 % of control, the T/C (endpoint: median survival time, dose: 50.0 mg/kg/injection, schedule: Q01DX005 (ip), vehicle: saline with Tween-80) is reported as 102 % of control and the T/C (endpoint: median survival time, dose: 100.0 mg/kg/injection, schedule: Q01DX005 (ip), vehicle: saline with Tween-80) is reported as 101 % of control. The T/C (endpoint: median survival time, dose: 200.0 mg/kg/injection, schedule: Q01DX005 (ip), vehicle: saline with Tween-80) was 98 % of control and the T/C (endpoint: median survival time, dose: 400.0 mg/kg/injection, schedule: Q01DX005 (ip), vehicle: saline with Tween-80) was 102 % of control.

In the case of `COc1cc(NS(C)(=O)=O)ccc1Nc1c2ccccc2nc2cc(C(F)(F)F)c(N)cc12`, the T/C [13] is reported as 154 % of control and the T/C [14] is reported as 265 % of control.

`O=C(Nc1ccc(NC2=NCCN2)cc1)c1ccc(C(=O)Nc2ccc(NC3=NCCN3)cc2)cc1` was tested, and the T/C (endpoint: mean survival time, dose: 3.0 mg/kg/injection, schedule: Q01DX008 (iv), vehicle: water) was 115 % of control.

In the case of `N=Cc1ccccc1`, the T/C (endpoint: mean survival time, dose: 100.0 mg/kg/injection, schedule: Q01DX001 (ip), vehicle: Klucel (hydroxypropylcellulose) (HPC)) is reported as 99 % of control, the T/C [13] is reported as 96 % of control and the T/C [14] is reported as 105 % of control.

With `O=C(Nc1cc(S(=O)(=O)O)cc2cc(S(=O)(=O)O)c(N=Nc3ccc([As](=O)(O)O)cc3)c(O)c12)c1ccc([N+](=O)[O-])cc1` the T/C (endpoint: mean survival time, dose: 12.5 mg/kg/injection, schedule: Q04DX002 (ip), vehicle: saline) was 101 % of control, the T/C (endpoint: mean survival time, dose: 25.0 mg/kg/injection, schedule: Q04DX002 (ip), vehicle: saline) was 94 % of control and the T/C (endpoint: mean survival time, dose: 50.0 mg/kg/injection, schedule: Q04DX002 (ip), vehicle: saline) was 94 % of control.

`CCOc1c(Cl)cc(Cl)cc1C(c1ccccc1S(=O)(=O)O)c1cc(Cl)cc(Cl)c1OCC` was tested, and the T/C (endpoint: mean survival time, dose: 6.25 mg/kg/injection, schedule: Q01DX009 (ip), vehicle: saline sonified) was 97 % of control, the T/C (endpoint: mean survival time, dose: 6.25 mg/kg/injection, schedule: Q04DX003 (ip), vehicle: saline sonified) was 97 % of control and the T/C (endpoint: mean survival time, dose: 12.5 mg/kg/injection, schedule: Q01DX009 (ip), vehicle: saline sonified) was 96 % of control. For the same compound, the T/C (endpoint: mean survival time, dose: 12.5 mg/kg/injection, schedule: Q04DX003 (ip), vehicle: saline sonified) was 103 % of control, the T/C (endpoint: mean survival time, dose: 25.0 mg/kg/injection, schedule: Q01DX009 (ip), vehicle: saline sonified) was 96 % of control and the T/C (endpoint: mean survival time, dose: 25.0 mg/kg/injection, schedule: Q04DX003 (ip), vehicle: saline sonified) was 95 % of control.

With `CCCN(CCC)S(=O)(=O)c1ccc(NC(=O)Oc2ccc([N+](=O)[O-])cc2)cc1` the T/C [3] was 94 % of control, the T/C [4] was 100 % of control and the T/C [5] was 95 % of control.

For `CC(C)(C)NC(=O)CCC(CC(=O)NC(C)(C)C)C1([N+](=O)[O-])CCCCC1` (stereo not given), the T/C [7] was 92 % of control and the T/C [8] was 86 % of control.

With `Nc1nc(N)c2nc(COc3ccc(C(=O)NC(CCC(=O)O)C(=O)O)cc3)cnc2n1` (stereo not given) the T/C (endpoint: mean survival time, dose: 0.38 mg/kg/injection, schedule: Q01DX009 (ip), vehicle: saline with Tween-80) was 110 % of control, the T/C (endpoint: mean survival time, dose: 0.75 mg/kg/injection, schedule: Q01DX009 (ip), vehicle: saline with Tween-80) was 109 % of control and the T/C (endpoint: mean survival time, dose: 1.5 mg/kg/injection, schedule: Q01DX009 (ip), vehicle: sodium bicarbonate) was 168 % of control. The T/C (endpoint: mean survival time, dose: 3.0 mg/kg/injection, schedule: Q01DX009 (ip), vehicle: saline with Tween-80) was 95 % of control, the T/C (endpoint: mean survival time, dose: 3.0 mg/kg/injection, schedule: Q01DX009 (ip), vehicle: sodium bicarbonate) was 179 % of control and the T/C (endpoint: mean survival time, dose: 6.0 mg/kg/injection, schedule: Q01DX009 (ip), vehicle: sodium bicarbonate) was 157 % of control.

In the case of `CC1(C)CC1(Br)Br`, the T/C (endpoint: mean survival time, dose: 6.25 mg/kg/injection, schedule: Q01DX009 (ip), vehicle: saline with Tween-80) is reported as 94 % of control and 112 % of control, the T/C (endpoint: mean survival time, dose: 12.5 mg/kg/injection, schedule: Q01DX009 (ip), vehicle: saline with Tween-80) is reported as 94 % of control and 106 % of control and the T/C [10] is reported as 102 % of control and 112 % of control. For the same compound, the T/C [6] was 100 % of control and 110 % of control, the T/C [7] was 93 % of control and 106 % of control and the T/C [8] was 97 % of control and 100 % of control.

In the case of `Oc1ccccc1/C=N/NC(=S)NC1CC2C=CC1C2` (stereo not given), the T/C (endpoint: mean survival time, dose: 12.5 mg/kg/injection, schedule: Q01DX009 (ip), vehicle: olive oil, sesame oil, peanut oil) is reported as 98 % of control, the T/C (endpoint: mean survival time, dose: 25.0 mg/kg/injection, schedule: Q01DX009 (ip), vehicle: olive oil, sesame oil, peanut oil) is reported as 97 % of control and the T/C (endpoint: mean survival time, dose: 50.0 mg/kg/injection, schedule: Q01DX009 (ip), vehicle: olive oil, sesame oil, peanut oil) is reported as 98 % of control. For the same compound, the T/C (endpoint: mean survival time, dose: 100.0 mg/kg/injection, schedule: Q01DX009 (ip), vehicle: olive oil, sesame oil, peanut oil) was 94 % of control, the T/C (endpoint: mean survival time, dose: 200.0 mg/kg/injection, schedule: Q01DX009 (ip), vehicle: olive oil, sesame oil, peanut oil) was 98 % of control and the T/C (endpoint: mean survival time, dose: 400.0 mg/kg/injection, schedule: Q01DX009 (ip), vehicle: olive oil, sesame oil, peanut oil) was 100 % of control.

`NC(=O)C1C(c2ccccc2)=C(c2ccccc2)c2ccccc21` (stereo not given) was tested, and the T/C [11] was 87 % of control, the T/C (endpoint: mean survival time, dose: 200.0 mg/kg/injection, schedule: Q01DX001 (ip), vehicle: saline with Tween-80) was 87 % of control and the T/C [12] was 87 % of control.

`CC1NC(C)SC(C)S1` (stereo not given) was tested, and the T/C [1] was 101 % of control and the T/C [2] was 98 % of control.

With `O=[n+]1ccn([O-])c2ccccc21` the T/C (endpoint: mean survival time, dose: 100.0 mg/kg/injection, schedule: Q04DX002 (ip), vehicle: saline with Tween-80) was 111 % of control and the T/C (endpoint: mean survival time, dose: 200.0 mg/kg/injection, schedule: Q04DX002 (ip), vehicle: saline with Tween-80) was 105 % of control.
